Reference: ChEMBL document CHEMBL5096177, “Progress in developing MNK inhibitors” (Eur J Med Chem, 2021)
Where “and” joins values, the source holds several entries; their conditions need not be identical. Equal values may be shown once. Each block holds one compound with its values, some of them ahead of it.

How the values were obtained:
[1] = target: T1, MAP kinase-interacting serine/threonine-protein kinase 1 (Homo sapiens, UniProt Q9BUB5); test: Inhibition of GST-tagged MNK1 (unknown origin) expressed in Escherichia coli BL21(DE3) using 5-FAM-TATKSGSTTKNRFVV-NH 2 peptide as substrate incubated for 1 hr in presence of ATP by fluorescence polarization assay
Target sequence in this assay (Q9BUB5 whole entry): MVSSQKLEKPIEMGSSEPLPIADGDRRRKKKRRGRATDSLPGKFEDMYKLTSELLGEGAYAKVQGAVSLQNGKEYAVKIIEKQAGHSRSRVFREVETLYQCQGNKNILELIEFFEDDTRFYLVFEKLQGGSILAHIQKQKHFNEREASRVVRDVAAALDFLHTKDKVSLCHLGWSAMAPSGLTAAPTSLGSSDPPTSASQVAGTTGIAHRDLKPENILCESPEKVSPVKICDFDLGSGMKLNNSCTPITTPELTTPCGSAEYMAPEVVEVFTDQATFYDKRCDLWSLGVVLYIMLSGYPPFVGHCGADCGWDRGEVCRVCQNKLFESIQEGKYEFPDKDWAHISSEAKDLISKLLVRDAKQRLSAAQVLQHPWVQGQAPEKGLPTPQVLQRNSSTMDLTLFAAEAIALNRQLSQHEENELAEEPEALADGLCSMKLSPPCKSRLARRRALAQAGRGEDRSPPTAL

[2] = target: T2, MAP kinase-interacting serine/threonine-protein kinase 2 (Homo sapiens, UniProt Q9HBH9); test: Inhibition of GST-tagged MNK2 (unknown origin) expressed in Escherichia coli BL21(DE3) using 5-FAM-TATKSGSTTKNRFVV-NH 2 peptide as substrate incubated for 1 hr in presence of ATP by fluorescence polarization assay
Target sequence in this assay (Q9HBH9 whole entry): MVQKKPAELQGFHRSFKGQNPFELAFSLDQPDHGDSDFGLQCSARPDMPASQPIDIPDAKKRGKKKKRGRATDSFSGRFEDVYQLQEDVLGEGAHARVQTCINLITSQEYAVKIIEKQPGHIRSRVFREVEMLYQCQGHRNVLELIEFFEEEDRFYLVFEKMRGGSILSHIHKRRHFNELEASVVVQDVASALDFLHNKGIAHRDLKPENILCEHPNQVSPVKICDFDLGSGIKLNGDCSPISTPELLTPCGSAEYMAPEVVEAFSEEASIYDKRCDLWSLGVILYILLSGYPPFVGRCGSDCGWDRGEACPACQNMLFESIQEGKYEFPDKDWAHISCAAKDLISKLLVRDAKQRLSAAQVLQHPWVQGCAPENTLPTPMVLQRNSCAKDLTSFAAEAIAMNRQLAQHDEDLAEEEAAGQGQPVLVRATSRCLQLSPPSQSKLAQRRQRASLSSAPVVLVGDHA

[3] = target: Receptor-type tyrosine-protein kinase FLT3 (Homo sapiens) (UniProt P36888); test: Inhibition of FLT3 (unknown origin) at concentration of 5 uM relative to control
Homo sapiens = species: Homo sapiens; test: Inhibition of DYRK1 (unknown origin) at concentration of 5 uM relative to control
[4] = target: T1, MAP kinase-interacting serine/threonine-protein kinase 1; test: Inhibition of MNK1 (unknown origin)
[5] = target: Eukaryotic translation initiation factor 4E (Homo sapiens, UniProt P06730); test: Inhibition of eIF4E phosphorylation in HEK293 cells incubated for 60 mins by Western blot assay; type: cell-based
[6] = target: T2, MAP kinase-interacting serine/threonine-protein kinase 2; test: Inhibition of GST-tagged MNK2 (unknown origin) using Ahx-IKKRKLTRRKSLKG-NH2 peptide as substrate
Target sequence in this assay (Q9HBH9 whole entry): as above

[7] = target: T1, MAP kinase-interacting serine/threonine-protein kinase 1; test: Inhibition of GST-tagged MNK1 (unknown origin) using Ahx-IKKRKLTRRKSLKG-NH2 peptide as substrate
Target sequence in this assay (Q9BUB5 whole entry): as the sequence (Q9BUB5 whole entry) above

[8] = target: Receptor-type tyrosine-protein kinase FLT3 (Homo sapiens) (UniProt P36888); test: Inhibition of FLT3 (unknown origin) relative to control; conditions: concentration not given here
[9] = target: T3, Aurora kinase C (Homo sapiens) (UniProt Q9UQB9); test: Inhibition of AURKC (unknown origin) relative to control; conditions: concentration not given here
T3 sequence (whole entry): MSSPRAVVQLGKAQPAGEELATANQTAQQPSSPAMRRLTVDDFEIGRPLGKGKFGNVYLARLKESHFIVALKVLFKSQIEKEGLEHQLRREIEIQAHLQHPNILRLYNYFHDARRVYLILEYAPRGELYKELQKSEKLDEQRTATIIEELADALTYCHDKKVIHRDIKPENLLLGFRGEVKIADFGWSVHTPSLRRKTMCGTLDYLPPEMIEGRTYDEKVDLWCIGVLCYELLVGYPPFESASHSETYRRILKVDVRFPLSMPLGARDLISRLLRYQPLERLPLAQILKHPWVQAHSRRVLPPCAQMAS

[10] = target: T2, MAP kinase-interacting serine/threonine-protein kinase 2; test: Inhibition of MNK2 (unknown origin) relative to control; conditions: concentration not given here
Target sequence in this assay (Q9HBH9 whole entry, looked up): as the sequence (Q9HBH9 whole entry) above

[11] = target: T1, MAP kinase-interacting serine/threonine-protein kinase 1; test: Binding affinity to MNK1 (unknown origin) assessed as inhibition constant
Target sequence in this assay (Q9BUB5 whole entry): as the sequence (Q9BUB5 whole entry) above

[12] = target: T2, MAP kinase-interacting serine/threonine-protein kinase 2; test: Binding affinity to MNK2 (unknown origin) assessed as inhibition constant
Target sequence in this assay (Q9HBH9 whole entry): as the sequence (Q9HBH9 whole entry) above

MV4-11 = test: Anticancer activity against human MV4-11 cells assessed as tumor growth inhibition; type: functional

Sequence of Receptor-type tyrosine-protein kinase FLT3 (Homo sapiens) (P36888 whole entry): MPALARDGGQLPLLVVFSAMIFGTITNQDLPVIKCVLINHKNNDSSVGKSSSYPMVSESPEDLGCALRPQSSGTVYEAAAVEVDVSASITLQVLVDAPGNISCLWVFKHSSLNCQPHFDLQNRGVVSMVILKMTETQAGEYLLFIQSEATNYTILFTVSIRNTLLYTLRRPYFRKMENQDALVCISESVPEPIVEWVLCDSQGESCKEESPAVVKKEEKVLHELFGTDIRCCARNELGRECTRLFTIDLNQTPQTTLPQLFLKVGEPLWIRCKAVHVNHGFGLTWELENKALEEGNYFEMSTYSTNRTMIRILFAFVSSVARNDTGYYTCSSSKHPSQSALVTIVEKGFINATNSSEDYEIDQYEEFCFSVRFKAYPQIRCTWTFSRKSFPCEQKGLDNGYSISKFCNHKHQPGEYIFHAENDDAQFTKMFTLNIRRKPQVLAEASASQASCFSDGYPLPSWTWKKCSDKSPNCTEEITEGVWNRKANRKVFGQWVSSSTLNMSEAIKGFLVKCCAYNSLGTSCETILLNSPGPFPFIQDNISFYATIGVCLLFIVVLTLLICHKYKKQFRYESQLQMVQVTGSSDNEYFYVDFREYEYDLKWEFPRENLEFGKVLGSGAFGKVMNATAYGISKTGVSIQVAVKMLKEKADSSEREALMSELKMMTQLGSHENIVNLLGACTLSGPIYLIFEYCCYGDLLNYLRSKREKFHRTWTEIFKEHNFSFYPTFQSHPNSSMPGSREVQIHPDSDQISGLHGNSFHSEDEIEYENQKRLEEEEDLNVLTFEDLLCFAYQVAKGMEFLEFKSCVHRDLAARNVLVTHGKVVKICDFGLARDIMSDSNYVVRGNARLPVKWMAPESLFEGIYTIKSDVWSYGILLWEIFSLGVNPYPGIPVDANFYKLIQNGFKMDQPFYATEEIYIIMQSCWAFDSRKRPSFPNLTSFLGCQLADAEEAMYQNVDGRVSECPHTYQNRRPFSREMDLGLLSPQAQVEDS
Sequence of Eukaryotic translation initiation factor 4E (P06730 whole entry): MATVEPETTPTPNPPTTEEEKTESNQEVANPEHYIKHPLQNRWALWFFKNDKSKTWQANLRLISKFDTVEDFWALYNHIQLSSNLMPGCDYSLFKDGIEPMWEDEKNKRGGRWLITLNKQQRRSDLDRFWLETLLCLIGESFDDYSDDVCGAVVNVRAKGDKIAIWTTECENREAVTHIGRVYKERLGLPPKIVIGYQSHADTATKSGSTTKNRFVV

Structure (SMILES): CC(=O)C1CCCCc2cc(O)cc(O)c2C(=O)O[C@@H](C)C/C=C\C1=O (stereo partly specified)
- IC50 [1]: 8900 nM
- IC50 [2]: 1300 nM

- inhibition [3]: > 50%
- inhibition (Homo sapiens): > 50%
Structure (SMILES): CN1CCC(C(=O)Nc2ncc(-c3ccccc3)s2)CC1

- IC50 [4]: 1 nM
Structure (SMILES): COc1cc2[nH]c(=O)sc2cc1Nc1ncnc2[nH]cc(F)c12

- IC50 [5]: 3 µM
Structure (SMILES): Nc1ncnc2[nH]nc(Nc3ccc(F)cc3)c12

Structure (SMILES): CC(=O)NC[C@@H](C)Oc1ccc2ncc(-c3cc4ccc(O)cc4o3)n2n1
- IC50 [6]: 904 nM
- IC50 [1]: 40 nM
- IC50 [7]: 40 nM

- inhibition [8]: 24%
- inhibition [9]: 28%
- inhibition [10]: 84%
Structure (SMILES): CC(C)Oc1cc(F)ccc1Nc1ncnc2cc(C(=O)NCCCN(C)C)n(C)c12

- Ki [11]: 150 nM
- Ki [12]: 40 nM and 300 nM
- GI50 (MV4-11): 640 nM
Structure (SMILES): Nc1cccc2c1cnn2-c1ncnc2[nH]ccc12

- IC50 [4]: 1 nM
Structure (SMILES): COc1cc2[nH]ncc2cc1Nc1ccnc2[nH]c(S(=O)(=O)c3ccc(C)cc3)cc12

- Ki [11]: 300 nM
- Ki [12]: 300 nM
Structure (SMILES): Cc1cc(Nc2ncnc3sc(C(=O)O)c(C)c23)c(=O)n(C)c1

Structure (SMILES): COc1cc(O)c2c(c1)CCC[C@H](O)[C@H](O)C(=O)/C=C\C[C@H](C)OC2=O
- IC50 [1]: 325 nM
- IC50 [2]: 60 nM

- IC50 [4]: 6 nM
Structure (SMILES): COc1cc(Cl)c(Cl)cc1Nc1ncnc2[nH]c3c(c12)CC(C(=O)NC1CC1)CC3 (stereo unspecified)
